Results reported in PMC3265250 (Chemotherapy Research and Practice, 2011).
Converted amounts (≈) assume the structure as drawn. Read-outs that look alike come from different tables or passages of the source. Positions of bridges follow the written chain, without caps; N, C: chain ends. Residues, ends and D or L forms follow the SMILES beside them. No end group written: not given here.

Columns and labels:
[1] = test system: Superantigen negative S. aureus (10); settings: for MIC 50% / MIC 90% / MIC Range: microbroth dilution, MHB II, 5 × 10^5 CFU/mL, 18 h at 37°C
clinical isolates of SA = settings: 18 h
[2] = test system: Superantigen positive S. aureus (14); settings: for MIC 50% / MIC 90% / MIC Range: microbroth dilution, MHB II, 5 × 10^5 CFU/mL, 18 h at 37°C
[3] = test system: Superantigen positive S. aureus (14); experiment: microbe, parasite or virus in culture; settings: Staphylococcus aureus; for MIC50 / MIC90 / MIC: 18 h; for MIC: read-out: MIC Range
[4] = test system: Superantigen negative S. aureus (10); experiment: microbe, parasite or virus in culture; settings: Staphylococcus aureus; for MIC50 / MIC90 / MIC: 18 h; for MIC: read-out: MIC Range
S. aureus ATCC 25923 = experiment: MIC, microbroth dilution, referential strain ATCC 25923; assay type: cell-based, Staphylococcus aureus
Description: (§1) A total number of 24 SA strains were obtained from patients with erythrodermia and 3 reference SA ones from the American Type Culture Collection: 6538P ATCC, 9144 ATCC, and 25923 ATCC (Institute of Experimental Therapy, Wroclaw, Poland). […] Polypropylene 96-well plates (Sigma-Aldrich) were incubated for 18 h at 37°C. MIC was taken as the lowest drug concentration at which a noticeable growth was inhibited. […] The experiments were performed in triplicate.

S. aureus ATCC 9144 = experiment: MIC, microbroth dilution, referential strain ATCC 9144; assay type: cell-based, Staphylococcus aureus
S. aureus ATCC 6538P = experiment: MIC, microbroth dilution, referential strain ATCC 6538P; assay type: cell-based, Staphylococcus aureus
Description: as §1

[5] = superantigen negative clinical isolates (10), more than 99.9% reduction of the initial inoculums, triplicate
[6] = superantigen positive clinical isolates (14), more than 99.9% reduction of the initial inoculums, triplicate
[7] = superantigen negative clinical isolates (10), triplicate
[8] = ATCC 25923, microbroth dilution, MHB II, 5 × 10^5 CFU/mL, 18 h at 37°C, triplicate
[9] = ATCC 9144, microbroth dilution, MHB II, 5 × 10^5 CFU/mL, 18 h at 37°C, triplicate
[10] = superantigen positive clinical isolates (14), triplicate
[11] = ATCC 6538P, microbroth dilution, MHB II, 5 × 10^5 CFU/mL, 18 h at 37°C, triplicate

Molecule	MBC 50% [1] [µg/mL]	MBC 90% [1] [µg/mL]	MBC 50% [2] [µg/mL]	MBC 90% [2] [µg/mL]	MBC Range [1, 5] [µg/mL]	MBC Range [2, 6] [µg/mL]	MIC 50% [1, 7] [µg/mL]	MIC 90% [1, 7] [µg/mL]	MIC Range [1, 7] [µg/mL]	MIC (S. aureus ATCC 25923; [8]) [µg/mL]	MIC (S. aureus ATCC 9144; [9]) [µg/mL]	MIC 50% [2, 10] [µg/mL]	MIC 90% [2, 10] [µg/mL]	MIC Range [2, 10] [µg/mL]	MIC (S. aureus ATCC 6538P; [11]) [µg/mL]	other results
CC[C@H](C)[C@@H]1NC(=O)CNC(=O)[C@H](CCCNC(=N)N)NC(=O)[C@H](Cc2ccc(O)cc2)NC(=O)[C@@H]2CSSC[C@H](NC1=O)C(=O)N[C@@H](Cc1ccc(O)cc1)C(=O)N[C@@H](CCCNC(=N)N)C(=O)N[C@@H](CCCCN)C(=O)N[C@H](C(=O)N[C@@H](CCCNC(=N)N)C(N)=O)CSSC[C@H](NC(=O)[C@H](Cc1c[nH]c3ccccc13)NC(=O)[C@@H](N)CCCCN)C(=O)N[C@@H](Cc1ccccc1)C(=O)N[C@@H](CCCNC(=N)N)C(=O)N[C@@H](C(C)C)C(=O)N2 [Tachyplesin 3, tachyplesin 3] (H-KWCFRVCYRGICYRKCR-NH2; disulfide 3-16, 7-12 (inferred); N-terminus and C-terminus assumed)	2 (≈ 0.895 µM)	4 (≈ 1.79 µM)	2 (≈ 0.895 µM)	4 (≈ 1.79 µM)												MIC values (range) (clinical isolates of SA): 1 to 8 µg/mL
CN(C)c1cc(NC(=O)CNC(C)(C)C)c(O)c2c1C[C@H]1C[C@H]3[C@H](N(C)C)C(O)=C(C(N)=O)C(=O)[C@@]3(O)C(O)=C1C2=O [Tigecycline, tigecycline]					1 to 2	1 to 2										MIC50 [3]: 0.5 µg/mL (≈ 0.854 µM); MIC90 [3]: 0.5 µg/mL (≈ 0.854 µM); MIC [3]: 0.5 to 1 µg/mL (≈ 0.854 to 1.71 µM); MIC90 ([3]; read-out: MICs 90%): 0.5 µg/mL (≈ 0.854 µM); MBC ([3]; read-out: MBC 50%): 1 µg/mL (≈ 1.71 µM); MBC ([3]; read-out: MBC 90%): 1 µg/mL (≈ 1.71 µM); MIC50 [4]: 0.5 µg/mL (≈ 0.854 µM); MIC90 [4]: 0.5 µg/mL (≈ 0.854 µM); MIC [4]: 0.5 to 1 µg/mL (≈ 0.854 to 1.71 µM); MIC90 ([4]; read-out: MICs 90%): 0.5 µg/mL (≈ 0.854 µM); MBC ([4]; read-out: MBC 50%): 1 µg/mL (≈ 1.71 µM); MBC ([4]; read-out: MBC 90%): 1 µg/mL (≈ 1.71 µM); MIC (S. aureus ATCC 25923; Staphylococcus aureus, ATCC25923, ATCC 25923, microbroth dilution, MHB II, 5 × 10^5 CFU/mL, 18 h at 37°C, triplicate, read-out: MIC): 0.25 µg/mL (≈ 0.427 µM); MIC (S. aureus ATCC 9144; Staphylococcus aureus, ATCC9144, ATCC 9144, microbroth dilution, MHB II, 5 × 10^5 CFU/mL, 18 h at 37°C, triplicate, read-out: MIC): 0.25 µg/mL (≈ 0.427 µM); MIC (S. aureus ATCC 6538P; Staphylococcus aureus, ATCC6538P, ATCC 6538P, microbroth dilution, MHB II, 5 × 10^5 CFU/mL, 18 h at 37°C, triplicate, read-out: MIC): 0.25 µg/mL (≈ 0.427 µM)
CN[C@H](CC(C)C)C(=O)N[C@H]1C(=O)N[C@@H](CC(N)=O)C(=O)N[C@H]2C(=O)N[C@H]3C(=O)N[C@H](C(=O)N[C@H](C(=O)O)c4cc(O)cc(O)c4-c4cc3ccc4O)[C@H](O)c3ccc(c(Cl)c3)Oc3cc2cc(c3O[C@@H]2O[C@H](CO)[C@@H](O)[C@H](O)[C@H]2O[C@H]2C[C@](C)(N)[C@H](O)[C@H](C)O2)Oc2ccc(cc2Cl)[C@H]1O [Vancomycin, vancomycin]																MIC50 [3]: 1 µg/mL (≈ 0.69 µM); MIC90 [3]: 2 µg/mL (≈ 1.38 µM); MIC [3]: 0.5 to 2 µg/mL (≈ 0.345 to 1.38 µM); MIC90 ([3]; read-out: MICs 90%): 2 µg/mL (≈ 1.38 µM); MBC ([3]; read-out: MBC 50%): 2 µg/mL (≈ 1.38 µM); MBC ([3]; read-out: MBC 90%): 4 µg/mL (≈ 2.76 µM); MIC50 [4]: 1 µg/mL (≈ 0.69 µM); MIC90 [4]: 1 µg/mL (≈ 0.69 µM); MIC [4]: 0.5 to 1 µg/mL (≈ 0.345 to 0.69 µM); MIC90 ([4]; read-out: MICs 90%): 1 µg/mL (≈ 0.69 µM); MBC ([4]; read-out: MBC 50%): 1 µg/mL (≈ 0.69 µM); MBC ([4]; read-out: MBC 90%): 2 µg/mL (≈ 1.38 µM); MBC Range [1]: 1 to 4 µg/mL; MIC (S. aureus ATCC 25923; Staphylococcus aureus, ATCC25923, 18 h): 1 µg/mL (≈ 0.69 µM); MIC (S. aureus ATCC 9144; Staphylococcus aureus, ATCC9144, 18 h): 2 µg/mL (≈ 1.38 µM); MBC Range [2]: 1 to 4 µg/mL; MIC (S. aureus ATCC 6538P; Staphylococcus aureus, ATCC6538P, 18 h): 1 µg/mL (≈ 0.69 µM)
FLPLIGRVLSGIL-NH2 (C-terminus assumed) [Temporin A, temporin A]	16	32	32	64	16 to 64	16 to 64	8	16	8 to 32	16	16	8	16	8 to 32	8	
GLFDIIKKIAESF-NH2 (C-terminus assumed) [Aurein 1.2, aurein 1.2]	64	128	64	128	64 to 128	64 to 128	64	128	32 to 128	64	64	64	128	32 to 128	64	
GLFDVIKKVASVIGGL-NH2 (C-terminus assumed) [Citropin 1.1, citropin 1.1]	16	64	16	64	16 to 64	16 to 64	16	32	8 to 32	32	32	16	32	8 to 32	8	
GVIDAAKKVVNVLKNLF-NH2 (C-terminus assumed) [Uperin 3.6, uperin 3.6]	128	128	128	128												
